Test results published in US20110319482A1, “NOVEL TREATMENTS” (priority 2008, published 2011).

Columns and labels:
migraine with aura = assay: single centre, double-blind, randomised, placebo controlled crossover study of prophylaxis of migraine in patients with migraine with aura; format: in vivo; conditions: 31 patients with migraine with aura, 20 or 40 mg po od, 12 week treatment period
Method: A single centre, double-blind, randomised, placebo controlled crossover study to evaluate the efficacy and tolerability of tonabersat in the prophylaxis of migraine in patients presenting with migraine with aura was conducted. Twelve week treatment period followed by a 4 week wash-out period before cross-over to 12 weeks treatment with the alternative trial medication. To investigate the efficacy of tonabersat compared to placebo in the reduction of the number of aura attacks and the number of migraine headache days in patients with migraine with aura. Following screening, patients were randomised to active or placebo treatment for 12 weeks. During the first two weeks of the treatment period, patients received treatment with tonabersat 20 mg (one tablet daily) or matching placebo. After two weeks, the dose was increased to tonabersat 40 mg per day (two tablets taken once daily [od]) with a similar increase in the number of placebo tablets taken. Depending on tolerability during the treatment period, the dose may have been reduced to 20 mg per day (or one placebo tablet) for the remainder of the treatment period. On completion of the first treatment period patients received placebo tablets (one tablet daily) for 4 weeks before starting the second treatment period when the alternative trial medication was administered. The design of the second period was the same as the first. […]

[1] = clinical trials, oral administration to man: plasma pharmacokinetics; format: in vivo; conditions: human, oral compositions as described in Table 1, administered orally to man
From the text: When taken during a migraine attack TMAX may be more variable and prolonged.

CC(=O)c1ccc2c(c1)[C@H](NC(=O)c1ccc(F)c(Cl)c1)[C@H](O)C(C)(C)O2 [tonabersat, cis-6-acetyl-4-(S)-(3-chloro-4-fluorobenzoylamino)-3,4-dihydro-2,2-dimethyl-2H-1-benzopyran-3-(S)-ol]
reduction in aura attacks compared to placebo (migraine with aura; p=0.01): 50%
reduction in migraine headache days compared to placebo (migraine with aura; p=0.08): 37.5%
half-life ([1]; read-out: terminal elimination half life): 24 to 40 h
Tmax ([1]; read-out: time to maximum plasma concentration (TMAX)): 1 to 3 h
